# Measured values published in PMC9266004, “Potential Common Mechanisms of Cytotoxicity Induced by Amide Herbicides via TRPA1 Channel Activation” (International Journal of Environmental Research and Public …, 2022).
# Where two headings read alike, the source gives them in different places.
# Assays:
# [1] = tested on: calcium influx in A549 cells; assay: Cellular calcium imaging (Fluo-4) in WT A549 cells; type: cell-based, human; settings: for calcium influx compared with 0 μM AHs: A549 cells, 150, 300, 600, 1200 μM; for calcium influx with HC-030031 pre-treatment compared with AHs treatment alone: A549 cells, HC-030031 50 μM, AHs 150-1200 μM
# Procedure: (§1) Wild-type (WT) and TRPA1-KO A549 cells were cultured in McCoy’s 5A Media and F-12K Nutrient Mixture containing 10% fetal bovine serum, respectively. WT/TRPA1-KO A549 cells (5 × 10^4 cells/mL) were seeded in 96-well (100 μL/well) and 6-well (2 mL/well) plates and incubated at 37 °C with 5% CO2 in a humidified incubator for 24 h. WT/TRPA1-KO A549 cells were treated with AHs gradient concentrations (0, 150, 300, 600, 1200 μM) prepared in methanol (1.2 M) for 24 h. […]
# (§2) Working solution was prepared according to the instructions of the Fluo-4 Direct calcium assay kit and directly added to WT/TRPA1-KO A549 cells in 96-well plates, which were incubated for 0.5 h and kept away from light after removal from the incubator. Single channel fluorescein isothiocyanate (FITC) levels were measured using a confocal high-content imaging system (IXM-C S150069, Molecular Devices, San Jose, CA, USA).
# TRPA1-KO A549 cells = assay: CCK-8 cell viability assay in TRPA1-KO A549 cells; type: cell-based, human; settings: for IC50: Homo sapiens, TRPA1-KO A549 cells, 24 h treatment, CCK-8, read-out: IC50 values of AHs, TRPA1-KO A549 Cells; for viability of TRPA1-KO A549 cells compared with AHs-treated WT cells: KO of TRPA1, AHs 150, 300, 600 μM
# Procedure: (§3) The hTRPA1 gene sequence (Gene ID: 8989) was obtained from the National Center for Biotechnology Information (NCBI) website (https://www.ncbi.nlm.nih.gov/gene/8989 accessed on 26 May 2022). Three gRNA sequences, namely, T1: 5′-[…]-[…], T16: 5′-[…]-3′, and T20: 5′-[…]-3′, were designed using the CRISPR online design tool (http://crispr.mit.edu/ accessed on 26 May 2022). Transfection of cells with gRNA-Cas9 was validated in test cells. Cell pool examination was performed using Sanger sequencing. Sequencing and tracer analysis were performed using the online tool TIDE (https://tide-calculator.nki.nl/ accessed on 26 May 2022) to investigate the cleavage efficiency of T1, T16, and T20. Cells from the cell pool were diluted in 96-well plates. Clones were observed under a microscope and wells containing single cell clones were labeled. Single cell clones were transferred to 24-well plates for expansion. Validation of knockout (KO) clones was performed via sequencing to confirm insertion and deletion on the genomes of KO clone candidates. Furthermore, mycoplasmas were detected for cloned cells with high KO using the Mycoplasma PCR Detection Kit.
# (§4) Wild-type (WT) and TRPA1-KO A549 cells were cultured in McCoy’s 5A Media and F-12K Nutrient Mixture containing 10% fetal bovine serum, respectively. WT/TRPA1-KO A549 cells (5 × 10^4 cells/mL) were seeded in 96-well (100 μL/well) and 6-well (2 mL/well) plates and incubated at 37 °C with 5% CO2 in a humidified incubator for 24 h. WT/TRPA1-KO A549 cells were treated with AHs gradient concentrations (0, 150, 300, 600, 1200 μM) prepared in methanol (1.2 M) for 24 h. Additionally, WT/TRPA1-KO A549 cells were pre-treated with TRPA1 special inhibitor HC-030031 (100 μM) for 0.5 h and then treated with AHs gradient concentrations for 24 h.
# (§5) To conduct the cell viability assay, the growth medium was removed from WT/TRPA1-KO A549 cells cultured in a 96-well plate. CCK-8 reagent was mixed with complete medium (1:9 volume ratio), and 100 µL of the CCK-8 reagent mixture was added to each well. The plate was incubated for 4 h and the absorbance was measured at 450 nm using a microplate reader (BNR05740; Molecular Devices, Sunnyvale, CA, USA). The average absorbance from each sextuplicate set of wells was calculated and the background control value was subtracted from each absorbance value. The percentage cell viability was determined using the following equation:cell viability (%) = [(As − Ab)/(Ac − Ab)] × 100% where As is the absorbance of the experimental well (containing medium, CCK-8 reagent, cells, and compound); Ac is the absorbance of the control well (containing medium, CCK-8 reagent, and cells); and Ab is the absorbance of the blank well (containing medium and CCK-8 reagent).
# [2] = molecular target: hTRPA1 ARD recombinant protein (Homo sapiens, UniProt O75762); assay: LSPR binding analysis (OpenSPR, COOH chip); settings: at the analyte concentrations tested (up to 1000-2000 μM)
# Sequence of hTRPA1 ARD recombinant protein (O75762 62-609): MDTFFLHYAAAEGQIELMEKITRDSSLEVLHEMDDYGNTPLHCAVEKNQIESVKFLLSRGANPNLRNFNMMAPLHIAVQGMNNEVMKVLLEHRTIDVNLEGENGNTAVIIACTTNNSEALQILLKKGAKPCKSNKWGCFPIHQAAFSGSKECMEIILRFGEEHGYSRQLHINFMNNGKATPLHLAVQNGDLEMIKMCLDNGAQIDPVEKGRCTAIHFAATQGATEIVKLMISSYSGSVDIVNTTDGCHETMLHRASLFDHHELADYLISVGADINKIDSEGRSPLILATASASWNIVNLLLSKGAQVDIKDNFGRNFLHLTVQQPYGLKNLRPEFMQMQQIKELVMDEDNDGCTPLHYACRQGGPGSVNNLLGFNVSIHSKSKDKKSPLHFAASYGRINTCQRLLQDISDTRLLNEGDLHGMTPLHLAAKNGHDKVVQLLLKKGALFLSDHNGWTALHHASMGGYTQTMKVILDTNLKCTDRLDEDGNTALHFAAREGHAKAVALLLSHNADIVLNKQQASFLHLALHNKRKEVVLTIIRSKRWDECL
# Procedure: The binding capacity of hTRPA1 ARD recombinant protein and AHs was determined by LSPR according to the OpenSPR (Nicoya Life Sciences, Kitchener, ON, Canada) operating procedure using the COOH chip. After the baseline signal was obtained, the sample was washed with 200 µL 80% isopropyl alcohol for 10 s, and 200 µL ethylcarbodiimide/N-hydroxysuccinimide solution was added. The sample loop was rinsed with phosphate-buffered saline (PBS). hTRPA1 (5 µL) was diluted with PBS, incubated for 4 min, and 200 µL blocking solution was added. […] Contact and dissociation time of analytes and protein were 240 s and 160 s, respectively. TraceDrawer software was applied to determine the association constant (ka), dissociation constant (kd), and affinity constant (KD) using a 1:1 model.
# A549 cells [3] = assay: CCK-8 cell viability assay in WT A549 cells; type: cell-based, human; settings: for viability of A549 cells compared with 0 μM AHs: 150, 300, 600, 1200 μM, 24 h; for viability of A549 cells compared with 0 μM AHs / IC50: CCK-8; for viability with HC-030031 pre-treatment compared with AHs treatment alone: A549 cells, HC-030031 50 μM, AHs 150, 300, 600 μM
# Procedure: as §1, §5
# TRPA1 mRNA in A549 cells = assay: RT-qPCR of TRPA1 mRNA; type: cell-based, human; settings: for TRPA1 mRNA expression with HC-030031 pre-treatment compared with AHs treatment alone: HC-030031 50 μM, AHs 150, 300, 600 μM; for expression of TRPA1 mRNA compared with 0 μM AHs: significant at one or more of 150, 300, 600 μM
# Procedure: as §1
# TRIzol Reagent (1 mL) was directly added to WT/TRPA1-KO A549 cells in 6-well plates and total RNA was extracted according to the manufacturer’s instructions. Total RNA was used for cDNA reverse transcription, which was performed according to the PrimeScript RT protocol with the following reaction conditions: 42 °C for 2 min, 4 °C for ∞ (removal of genomic DNA), 37 °C for 15 min, 85 °C for 5 s, and 4 °C for ∞ (reverse transcriptional reaction). RT-qPCR was performed according to the TB Green Premix Ex Taq II protocol. Primer sequences and product lengths were as follows: hTRPA1 (107 bp) forward primer 5′-[…]-3′, reverse primer 5′-[…]-3′; hβ-actin (184 bp) forward primer 5′-[…]-3′, reverse primer 5′-[…]-3′. RT-qPCR was performed using the CFX96 Real-Time System (Bio-Rad Laboratories, Hercules, CA, USA) using the following reaction conditions: 95 °C for 30 s, 40 cycles of 95 °C for 5 s, 60 °C for 30 s, and 72 °C for 30 s, followed by a melting curve from 65 to 95 °C in 0.5 °C/5 s increments. Calculations were performed using the CFX Manager^TM Version 1.0 software (Bio-Rad Laboratories Ltd., Hercules, CA, USA) and are represented as fold change in expression [2^ΔΔC(t)] on a linear scale.
# [4] = tested on: calcium influx in TRPA1-KO A549 cells; assay: Cellular calcium imaging (Fluo-4) in TRPA1-KO A549 cells; type: cell-based, human; settings: AHs 150-1200 μM
# Procedure: as §3, §4, §2
# A549 cells [5] = assay: LDH cytotoxicity assay; type: cell-based, human
# Procedure: as §4
# Using the Cytotoxicity LDH Assay Kit, lysis buffer (10 μL) was added to the high control well of a 96-well plate containing WT/TRPA1-KO A549 cells, which was then incubated for 0.5 h. Working solution was prepared by adding 5 mL assay buffer to the dye mixture vial, of which 100 μL was added to each well. The plate was protected from light and incubated at room temperature for 0.5 h. Subsequently, 50 μL stop solution was added to each well and the absorbance was measured immediately at 490 nm using a microplate reader (BNR05740, Molecular Devices). The average absorbance was calculated from each sextuplicate set of wells and the background control value was subtracted from each absorbance value. The percentage cytotoxicity was determined using the following equation:cytotoxicity (%) = [(Aa − Ab1)/(Ab2 − Ab1)] × 100% where Aa is the absorbance of the experimental well (containing medium, cells, and compound); Ab2 is the absorbance of the high control well (containing medium, cells, and lysis buffer); and Ab1 is the absorbance of the low control well (containing medium and cells).
# [6] = Homo sapiens, WT A549 cells, 24 h treatment, read-out: IC50 values of AHs, A549 Cells
# [7] = WT A549 cells pre-treated with HC-030031 50 μM, then AHs 24 h, read-out: IC50 values of AHs, A549 Cells + HC-030031 50 μM
SMILES,calcium influx compared with 0 μM AHs [1],calcium influx with HC-030031 pre-treatment compared with AHs treatment alone [1],IC50 (TRPA1-KO A549 cells) [µM],viability of TRPA1-KO A549 cells compared with AHs-treated WT cells (TRPA1-KO A549 cells),binding between hTRPA1 and AHs (LSPR) [2],viability of A549 cells compared with 0 μM AHs (A549 cells [3]),viability with HC-030031 pre-treatment compared with AHs treatment alone (A549 cells [3]),IC50 (A549 cells [3]; [6]) [µM],IC50 (A549 cells [3]; [7]) [µM],TRPA1 mRNA expression with HC-030031 pre-treatment compared with AHs treatment alone (TRPA1 mRNA in A549 cells),expression of TRPA1 mRNA compared with 0 μM AHs (TRPA1 mRNA in A549 cells),calcium influx with KO of TRPA1 compared with AHs-treated WT cells [4],"cell damage (LDH) compared with 0 μM AHs (A549 cells [5]; 150, 300, 600, 1200 μM, 24 h)",cell damage (LDH) compared with 0 μM AHs (A549 cells [5])
"CCOCN(C(=O)CCl)c1c(C)cccc1CC [Acetochlor, acetochlor]",significantly increased,significantly decreased calcium influx,696,significantly increased the viability,Obvious binding was not detected,significantly decreased,significantly increased viability,524,647,significantly reduced,significantly increased,significantly decreased calcium influx,,
"CCc1cccc(CC)c1N(COC)C(=O)CCl [Alachlor, alachlor]",significantly increased,significantly decreased calcium influx,659,significantly increased the viability,Obvious binding was not detected,significantly decreased,significantly increased viability,565,731,significantly reduced,significantly increased,significantly decreased calcium influx,significantly increased cell damage,
"CCCCOCN(C(=O)CCl)c1c(CC)cccc1CC [Butachlor, butachlor]",significantly increased,significantly decreased calcium influx,767,significantly increased the viability,Obvious binding was not detected,significantly decreased,significantly increased viability,619,1760,significantly reduced,significantly increased,significantly decreased calcium influx,,significantly increased cell damage
"CCc1cccc(C)c1N(COC(C)C)C(=O)CCl [Propisochlor, propisochlor]",significantly increased,significantly decreased calcium influx,1830,significantly increased the viability,Obvious binding was not detected,significantly decreased,albeit not significantly,564,1690,albeit not significantly,significantly increased,significantly decreased calcium influx,significantly increased cell damage,
